IC50 data for six molecules are collected here from US20240051985A1, “METTL3 MODULATORS” (ACCENT THERAPEUTICS, INC., priority 2020, published 2024).

Molecules are shown by their SMILES.

PRMT5-MEP50, sequence (O14744 whole entry): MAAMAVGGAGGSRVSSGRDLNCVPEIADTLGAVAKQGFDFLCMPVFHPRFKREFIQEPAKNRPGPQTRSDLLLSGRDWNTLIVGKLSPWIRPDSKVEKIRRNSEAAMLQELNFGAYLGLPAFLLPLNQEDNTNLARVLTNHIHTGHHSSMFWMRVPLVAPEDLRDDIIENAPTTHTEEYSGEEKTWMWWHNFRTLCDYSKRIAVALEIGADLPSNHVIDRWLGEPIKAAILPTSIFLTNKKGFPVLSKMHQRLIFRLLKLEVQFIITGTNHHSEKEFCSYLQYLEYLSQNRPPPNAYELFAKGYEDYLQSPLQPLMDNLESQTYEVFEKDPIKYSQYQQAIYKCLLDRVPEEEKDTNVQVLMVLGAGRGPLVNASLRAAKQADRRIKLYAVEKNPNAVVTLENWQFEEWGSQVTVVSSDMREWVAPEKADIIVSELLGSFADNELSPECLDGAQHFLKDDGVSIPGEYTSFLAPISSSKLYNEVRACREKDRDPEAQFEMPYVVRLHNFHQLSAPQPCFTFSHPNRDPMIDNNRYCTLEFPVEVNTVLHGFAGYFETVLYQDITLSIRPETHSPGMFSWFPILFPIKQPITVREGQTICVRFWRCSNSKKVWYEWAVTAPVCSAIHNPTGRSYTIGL
PRMT5-MEP50, sequence (Q9BQA1 whole entry partner): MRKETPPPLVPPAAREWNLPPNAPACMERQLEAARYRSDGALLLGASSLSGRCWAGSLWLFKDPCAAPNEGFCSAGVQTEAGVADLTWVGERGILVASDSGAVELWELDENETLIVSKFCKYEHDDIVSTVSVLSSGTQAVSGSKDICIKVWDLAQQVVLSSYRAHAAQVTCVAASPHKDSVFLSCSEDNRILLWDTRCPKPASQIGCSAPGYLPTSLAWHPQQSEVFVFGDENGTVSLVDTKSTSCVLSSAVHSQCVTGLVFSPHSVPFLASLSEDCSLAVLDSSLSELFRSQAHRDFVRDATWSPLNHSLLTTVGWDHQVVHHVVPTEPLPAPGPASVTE

For the first assay, the target named is PRMT5-MEP50 (Homo sapiens, UniProt O14744). The assay is described as follows: PRMT5 assay (3H-SAM flashplate). The settings on record: Table 4; PRMT5 biochemical assay. An outline of the steps:
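PRMT5-MEP50 at 2.5 nM, preincubated 5 min with compound in 20 mM Tris-HCl pH 8.0, 1 mM DTT, 0.01% Tween at ambient temperature. Biotinylated acetylated histone H4 peptide (100 nM) and 3H-SAM (250 nM) react 60 min, quenched with 15 μM cold SAM; methylation captured on streptavidin flashplates and scintillation-counted.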
For `Cn1ccc(-c2cn([C@@H]3O[C@H](C(=O)NN4CCCCC4)[C@@H](O)[C@H]3O)c3ncnc(N)c23)n1` [Compound I-199], the IC50 is 0.1 to 1 µM.

Molecule `Cn1ccc(-c2cn([C@@H]3O[C@H](C(=O)N4CCNC(=O)C4)[C@@H](O)[C@H]3O)c3ncnc(N)c23)n1` [Compound I-204] came in with an IC50 not below 1 µM.

Molecule `CCNc1cc(CNC(=O)[C@H]2O[C@@H](n3cc(-c4ccn(C)n4)c4c(N)ncnc43)[C@H](O)[C@@H]2O)ccn1` [Compound I-226] displayed an IC50 of 0.1 to 1 µM.

`CC(=O)N1CCC(CNC(=O)[C@H]2O[C@@H](n3cc(-c4ccn(C)n4)c4c(N)ncnc43)[C@H](O)[C@@H]2O)CC1` [Compound I-227] yielded an IC50 not below 1 µM.

`Cn1ccc(-c2cn([C@@H]3O[C@H](C(=O)NCCc4c[nH]cn4)[C@@H](O)[C@H]3O)c3ncnc(N)c23)n1` [Compound I-228]: the 50% inhibitory concentration (IC50) was in the range of 0.1 to 1 µM.

`Cn1ccc(-c2cn([C@@H]3O[C@H](C(=O)NCC#N)[C@@H](O)[C@H]3O)c3ncnc(N)c23)n1` [Compound I-229] had an IC50 not below 1 µM.

In a further assay the target is METTL3/METTL14 (Homo sapiens, UniProt Q86U44). Description: METTL3-14 standard enzyme assay (3H-SAM flashplate). The conditions noted are these: Table 4; METTL3 biochemical assay. In short, it runs like this: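 METTL3/METTL14 (2.5 nM) preincubated 5 min, then reacted with 3′-biotinylated RNA UCUGGACUAAA (100 nM) and 3H-SAM (100 nM) for 30 min at ambient temperature in 20 mM HEPES pH 7.5, 50 mM KCl, 250 μM MgCl2, 1 mM DTT. Quenched with 15 μM cold SAM; product captured on streptavidin flashplates, scintillation counted.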
METTL3/METTL14, sequence (Q86U44 whole entry, species assumed): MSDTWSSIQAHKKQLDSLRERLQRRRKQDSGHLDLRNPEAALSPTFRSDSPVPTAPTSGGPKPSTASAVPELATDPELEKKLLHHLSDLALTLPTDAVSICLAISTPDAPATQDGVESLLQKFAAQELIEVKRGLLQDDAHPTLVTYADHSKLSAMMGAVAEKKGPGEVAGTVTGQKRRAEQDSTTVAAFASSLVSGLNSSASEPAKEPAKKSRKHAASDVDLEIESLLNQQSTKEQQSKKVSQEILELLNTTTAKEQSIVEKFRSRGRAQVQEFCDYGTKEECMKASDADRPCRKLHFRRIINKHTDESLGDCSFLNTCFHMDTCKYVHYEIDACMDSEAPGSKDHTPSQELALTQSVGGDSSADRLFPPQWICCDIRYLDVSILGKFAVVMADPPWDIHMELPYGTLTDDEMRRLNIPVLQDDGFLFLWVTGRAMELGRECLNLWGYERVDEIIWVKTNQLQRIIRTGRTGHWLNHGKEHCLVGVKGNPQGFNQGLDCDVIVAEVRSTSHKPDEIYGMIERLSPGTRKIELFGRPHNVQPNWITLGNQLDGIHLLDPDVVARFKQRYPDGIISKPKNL
METTL3/METTL14, sequence (Q9HCE5 whole entry partner, species assumed): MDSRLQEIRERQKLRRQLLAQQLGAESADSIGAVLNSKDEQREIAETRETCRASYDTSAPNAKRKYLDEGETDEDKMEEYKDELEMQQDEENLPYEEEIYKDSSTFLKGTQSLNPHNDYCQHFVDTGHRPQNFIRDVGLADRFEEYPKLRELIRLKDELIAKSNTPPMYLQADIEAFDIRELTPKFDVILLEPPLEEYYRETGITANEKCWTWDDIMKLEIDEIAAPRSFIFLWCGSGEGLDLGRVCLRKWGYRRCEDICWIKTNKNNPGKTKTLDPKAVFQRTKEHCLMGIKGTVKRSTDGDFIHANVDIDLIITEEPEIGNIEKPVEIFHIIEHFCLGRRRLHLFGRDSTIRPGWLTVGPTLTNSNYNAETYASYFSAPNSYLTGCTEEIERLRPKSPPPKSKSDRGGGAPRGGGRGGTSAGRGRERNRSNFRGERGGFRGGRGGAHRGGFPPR
Turning to `Cn1ccc(-c2cn([C@@H]3O[C@H](C(=O)NN4CCCCC4)[C@@H](O)[C@H]3O)c3ncnc(N)c23)n1` [Compound I-199], the IC50 was not below 1 µM.

Molecule `Cn1ccc(-c2cn([C@@H]3O[C@H](C(=O)N4CCNC(=O)C4)[C@@H](O)[C@H]3O)c3ncnc(N)c23)n1` [Compound I-204] came in with a 50% inhibitory concentration (IC50) not below 1 µM.

Molecule `CCNc1cc(CNC(=O)[C@H]2O[C@@H](n3cc(-c4ccn(C)n4)c4c(N)ncnc43)[C@H](O)[C@@H]2O)ccn1` [Compound I-226] came in with an IC50 of 0.1 to 1 µM.

In turn, `CC(=O)N1CCC(CNC(=O)[C@H]2O[C@@H](n3cc(-c4ccn(C)n4)c4c(N)ncnc43)[C@H](O)[C@@H]2O)CC1` [Compound I-227] gave a 50% inhibitory concentration (IC50) not below 1 µM.

In turn, `Cn1ccc(-c2cn([C@@H]3O[C@H](C(=O)NCCc4c[nH]cn4)[C@@H](O)[C@H]3O)c3ncnc(N)c23)n1` [Compound I-228] showed an IC50 of 0.1 to 1 µM.

Regarding `Cn1ccc(-c2cn([C@@H]3O[C@H](C(=O)NCC#N)[C@@H](O)[C@H]3O)c3ncnc(N)c23)n1` [Compound I-229], the half-inhibitory concentration (IC50) was not below 1 µM.

In another assay the target is T1, FLT3 (Homo sapiens, UniProt P36888).
T1 sequence (P36888 27-993): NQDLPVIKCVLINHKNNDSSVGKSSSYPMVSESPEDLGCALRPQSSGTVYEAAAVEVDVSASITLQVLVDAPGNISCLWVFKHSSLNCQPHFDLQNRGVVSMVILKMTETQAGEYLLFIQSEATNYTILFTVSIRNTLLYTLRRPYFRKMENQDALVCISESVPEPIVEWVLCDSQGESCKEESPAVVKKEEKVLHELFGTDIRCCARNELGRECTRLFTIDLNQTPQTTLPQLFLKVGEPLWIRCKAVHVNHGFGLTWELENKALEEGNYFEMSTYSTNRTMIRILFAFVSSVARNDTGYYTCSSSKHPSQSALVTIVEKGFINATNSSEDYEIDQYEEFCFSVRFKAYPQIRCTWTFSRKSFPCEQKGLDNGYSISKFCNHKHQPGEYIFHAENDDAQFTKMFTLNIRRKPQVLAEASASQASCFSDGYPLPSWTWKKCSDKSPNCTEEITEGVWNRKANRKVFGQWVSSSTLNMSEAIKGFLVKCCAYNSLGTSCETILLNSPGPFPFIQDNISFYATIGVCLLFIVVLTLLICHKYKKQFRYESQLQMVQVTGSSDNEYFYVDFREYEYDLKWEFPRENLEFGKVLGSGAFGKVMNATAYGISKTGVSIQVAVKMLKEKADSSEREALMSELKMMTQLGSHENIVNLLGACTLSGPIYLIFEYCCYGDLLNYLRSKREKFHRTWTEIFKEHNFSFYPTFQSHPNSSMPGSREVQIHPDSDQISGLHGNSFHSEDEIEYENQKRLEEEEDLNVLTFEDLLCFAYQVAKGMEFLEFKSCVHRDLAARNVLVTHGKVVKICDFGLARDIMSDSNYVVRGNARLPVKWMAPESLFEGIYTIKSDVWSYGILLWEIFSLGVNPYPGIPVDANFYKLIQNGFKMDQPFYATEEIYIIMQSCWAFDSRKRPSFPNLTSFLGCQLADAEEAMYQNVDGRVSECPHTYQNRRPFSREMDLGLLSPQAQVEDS
The assay is described as follows: FLT3 Caliper assay. The assay is classed as biochemical. The conditions noted are these: Table 4; read-out: FLT3 Calipher assay IC50. As to the method: (§1) FLT3/FLT3-ITD Caliper Assays
(§2) Assays were performed in a 20 μl-volume in 384-well polypropylene microplates (Perkin Elmer Proxiplate, cat. No. 6059480) at ambient temperature. Optimized 1× assay buffer was 50 mM Hepes pH 7.5, 2 mM DTT, 0.01% Tween, 0.01% BSA, 10 mM MgCl2. For compound screening FLT3 (final concentration, f.c.=0.9 nM) or FLT3-ITD (f.c.=7 nM) was added using a Multidrop Combi (ThermoFisher Scientific, Waltham, MA) and preincubated for 10 min. Reactions were started by adding fluorescein-peptide (sequence 5-FAM-EAIYAAPFAKKK-CONH2) (f.c.=300 μM) and ATP (FLT3 f.c.=97 μM FLT3-ITD f.c.=146 μM) substrates. Reactions proceeded for 60 minutes. The reactions were stopped with LabChip ProfilerPro Separation Buffer containing EDTA (f.c.=20 mM). The plates were read on a Caliper microfluidics reader (PerkinElmer, Waltham, MA).
Consider `Cn1ccc(-c2cn([C@@H]3O[C@H](C(=O)NN4CCCCC4)[C@@H](O)[C@H]3O)c3ncnc(N)c23)n1` [Compound I-199], for which the IC50 is not below 1 µM.

In the case of `Cn1ccc(-c2cn([C@@H]3O[C@H](C(=O)N4CCNC(=O)C4)[C@@H](O)[C@H]3O)c3ncnc(N)c23)n1` [Compound I-204], the IC50 is not below 1 µM.

As to `CCNc1cc(CNC(=O)[C@H]2O[C@@H](n3cc(-c4ccn(C)n4)c4c(N)ncnc43)[C@H](O)[C@@H]2O)ccn1` [Compound I-226], the IC50 was not below 1 µM.

For `CC(=O)N1CCC(CNC(=O)[C@H]2O[C@@H](n3cc(-c4ccn(C)n4)c4c(N)ncnc43)[C@H](O)[C@@H]2O)CC1` [Compound I-227], the half-maximal inhibitory concentration (IC50) was not below 1 µM.

In the case of `Cn1ccc(-c2cn([C@@H]3O[C@H](C(=O)NCCc4c[nH]cn4)[C@@H](O)[C@H]3O)c3ncnc(N)c23)n1` [Compound I-228], the IC50 is not below 1 µM.

For `Cn1ccc(-c2cn([C@@H]3O[C@H](C(=O)NCC#N)[C@@H](O)[C@H]3O)c3ncnc(N)c23)n1` [Compound I-229], the IC50 was not below 1 µM.

The target of another assay is T2, FLT3-ITD (Homo sapiens, UniProt P36888).
T2 sequence (P36888 1-993): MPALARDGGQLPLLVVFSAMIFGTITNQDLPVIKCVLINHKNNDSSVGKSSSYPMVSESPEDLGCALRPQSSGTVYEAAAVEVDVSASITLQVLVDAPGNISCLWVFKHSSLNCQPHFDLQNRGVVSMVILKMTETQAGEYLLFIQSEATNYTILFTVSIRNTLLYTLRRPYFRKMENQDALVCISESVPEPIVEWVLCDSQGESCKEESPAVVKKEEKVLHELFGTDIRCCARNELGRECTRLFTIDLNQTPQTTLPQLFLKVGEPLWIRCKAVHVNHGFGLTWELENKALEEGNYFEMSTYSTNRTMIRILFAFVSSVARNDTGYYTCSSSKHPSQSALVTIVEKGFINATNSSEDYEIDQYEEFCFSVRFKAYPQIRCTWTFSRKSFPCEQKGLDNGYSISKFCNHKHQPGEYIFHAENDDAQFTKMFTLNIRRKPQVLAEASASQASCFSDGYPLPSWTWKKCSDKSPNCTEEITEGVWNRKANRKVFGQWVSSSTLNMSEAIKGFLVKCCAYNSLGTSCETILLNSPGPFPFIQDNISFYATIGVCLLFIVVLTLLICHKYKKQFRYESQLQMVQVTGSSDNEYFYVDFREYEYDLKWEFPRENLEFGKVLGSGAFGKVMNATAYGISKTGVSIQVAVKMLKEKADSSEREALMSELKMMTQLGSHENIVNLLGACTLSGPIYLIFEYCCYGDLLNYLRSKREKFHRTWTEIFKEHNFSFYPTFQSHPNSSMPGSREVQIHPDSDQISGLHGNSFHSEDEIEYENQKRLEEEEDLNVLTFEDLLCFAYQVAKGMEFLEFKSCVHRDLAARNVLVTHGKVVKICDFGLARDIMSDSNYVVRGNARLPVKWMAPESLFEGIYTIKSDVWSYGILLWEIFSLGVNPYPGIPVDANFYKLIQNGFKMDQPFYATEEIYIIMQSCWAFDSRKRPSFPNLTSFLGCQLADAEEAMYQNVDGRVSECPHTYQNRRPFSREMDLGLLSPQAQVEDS
The assay is described as follows: FLT3-ITD Caliper assay. The assay is classed as biochemical. The settings on record: Table 4; read-out: FLT3-ITD Calipher assay IC50. How it is done:
as §1, §2
With `Cn1ccc(-c2cn([C@@H]3O[C@H](C(=O)NN4CCCCC4)[C@@H](O)[C@H]3O)c3ncnc(N)c23)n1` [Compound I-199], the concentration for half-maximal inhibition (IC50) was not below 1 µM.

With `Cn1ccc(-c2cn([C@@H]3O[C@H](C(=O)N4CCNC(=O)C4)[C@@H](O)[C@H]3O)c3ncnc(N)c23)n1` [Compound I-204], the concentration for half-maximal inhibition (IC50) was not below 1 µM.

Consider `CCNc1cc(CNC(=O)[C@H]2O[C@@H](n3cc(-c4ccn(C)n4)c4c(N)ncnc43)[C@H](O)[C@@H]2O)ccn1` [Compound I-226], for which the concentration for half-maximal inhibition (IC50) is not below 1 µM.

`CC(=O)N1CCC(CNC(=O)[C@H]2O[C@@H](n3cc(-c4ccn(C)n4)c4c(N)ncnc43)[C@H](O)[C@@H]2O)CC1` [Compound I-227]: the IC50 was not below 1 µM.

Turning to `Cn1ccc(-c2cn([C@@H]3O[C@H](C(=O)NCCc4c[nH]cn4)[C@@H](O)[C@H]3O)c3ncnc(N)c23)n1` [Compound I-228], the IC50 is not below 1 µM.

In the case of `Cn1ccc(-c2cn([C@@H]3O[C@H](C(=O)NCC#N)[C@@H](O)[C@H]3O)c3ncnc(N)c23)n1` [Compound I-229], the IC50 is not below 1 µM.
